Test [1] has as its system non-small cell lung cancer. The test is described as follows: dose-escalation trial in non-small cell lung cancer. Format: in vivo. To be noted: human NSCLC; local irradiation 5×4 Gy then EMD521873 at a dose level below the MTD. On the procedure:
An dose-escalation trial is performed using EMD521873 in combination with local irradiation (20 Gy) of primary tumors or metastases in subjects with non-small cell lung cancer stage IIIb with malignant pleural effusion or stage IV with disease control (partial response or stable disease) after application of 4 cycles of platinum-based, first-line chemotherapy.
Subjects receive local irradiation (5×4 Gy) given over 5 consecutive days, prior to the first treatment cycle with EMD521873. After a 2-day treatment-free interval, intravenous infusions of EMD521873 are given on 3 consecutive days in 3-week cycles.
In each cycle, patients receive EMD521873 given as a once-daily, 1-h intravenous infusion on 3 consecutive days (days 1-3) followed by an 18-day treatment-free break (days 4-21).
Dose escalation of EMD521873 is performed in cohorts of 3 subjects at dose levels of 0.15, 0.30, and 0.45 mg/kg. Escalation to the next dose level is based on the number of dose limiting toxicities (DLTs) observed, if any, during the DLT evaluation period (i.e. the 21 days following the day of first infusion of […] in the first cycle). DLTs are defined as any grade ≧3 toxicity assessed as related to trial treatment (EMD521873 and/or radiation). If no DLT occurs in the 3 subjects, the next 3 subjects are recruited at the next highest dose level. […]

The subject of test [2] is immune effector cell populations in blood. The test is described as follows: FACS analysis of immune effector cell populations in blood, CT26/KSA model. Type of test: in vivo, mice. On the procedure:
Immune effector cell populations in blood were analyzed by FACS. Blood was collected from the retro-orbital sinus of each mouse. Red blood cells were eliminated using lysis buffer. After blocking with rat IgG (1:50), samples were incubated with a 7-color cocktail of antibodies against CD4, CD8, CD25, CD44, CD62L, CD11b, and DX5. Samples were run on a FacsARIA and analyzed for various cell subpopulations.

A further test concerns CT26 colon carcinoma. The test is described as follows: tumor growth assay, CT26 model. Format: in vivo, mice. To be noted: Experiment CT26-4; 8 Gy followed by i.v. EMD521873 days 2, 3, 4. The text has this: CT26 cells, a murine colon epithelial cell line derived by intrarectal injection of N-nitroso-N-methylurethane in BALB/C mice, were transfected to express the human KS antigen (KSA or EpCAM) that was cloned by PCR and expressed in parental cells using a retroviral vector (Gillies 1998). CT26/KSA cells were maintained in DMEM, supplemented with 10% heat inactivated fetal bovine serum, L-glutamine, vitamins, sodium pyruvate, non-essential amino acids, penicillin/streptomycin and Geneticin® (G418) (Life Technologies, Inc.) at 37° C. and 7% CO2. G418 was added to maintain KSA expression. CT26 and CT26/KSA cells were implanted in female BALB/C mice.
For the tumor growth assay, cells growing exponentially in culture were injected as a single cell suspension in 100 μl of PBS intramuscularly into the upper legs of the mice. In experiments using a dual tumor model, cells were also implanted in the flanks of the mice. […] Thereafter, animal survival was monitored. […] Mice were treated on days 0 to 6 and day 17, and tumor size was measured twice weekly for the duration of the study.
Tumors were measured with calipers in three dimensions for the duration of the experiment. Tumor volumes were calculated using the equation: […]
In the CT26 model (Experiment CT26-4), tumors were irradiated with either 4 or 8 Gy followed by i.v. EMD521873 on days 2, 3, and 4. […] Immune response in the tumor was not monitored.

Test [3] concerns Lewis Lung Carcinoma cells. The test is described as follows: rechallenge of cured mice with Lewis Lung Carcinoma cells. Type of test: in vivo. On the procedure:
The ability of irradiation followed by intravenous administration of the exemplary immunocytokine EMD521873 to generate a long lasting immune response was tested by rechallenging cured mice with tumor cells. Mice bearing Lewis Lung Carcinoma tumors were originally treated with either fractionated radiation (3.6 Gy/d, d0-4) plus cisplatin (4 mg/kg, d0), EMD521873 alone (5 mg/kg, d7, 8, 9), or the combination of EMD521873 plus chemoradiation.

Consider “dI-NHS76γ2(h)(FN>AQ)-ala-IL2(D20T) [EMD521873]”, for which the “rates of tumor response (CT or MRI scan)” value in test [1] is “improved rates of tumor response”. Also, in test [2] (radiation followed by EMD521873 (combination)), the “CD4+CD25+ lymphocyte subpopulation in the blood” value is “increased”. Moreover, in test [2] (radiation followed by EMD521873, compared to either therapy alone), the “increase in effector T cells in the blood” value came to 4 fold. In addition, the tumor growth result in the test on CT26 colon carcinoma is “blocked tumor growth beyond either therapy alone”. Further, in test [3] (EMD521873/Chemoradiation treatment, s.c. LLC rechallenge after complete remission >50 days), the “mice with complete response that did not regrow tumor on rechallenge” value is reported as 12 out of 13. In addition, the “Immunity to Rechallenge” value in test [3] (Exp LLC-4, cured C57BL/6 mice rechallenged with LLC cells) is listed as 0/1. In test [3] (LLC-8, LLC-9, combination with chemoradiation), the “mice with complete responses immune to rechallenge with LLC cells” value is recorded as “Four out of 4”.

The values above are taken from US20100330029A1, “Cancer Treatments with Radiation and Immunocytokines” (Merck Patent GmbH, priority 2008, published 2010).
